Test results reported in patent US20250177376A1, “ALPHA 2 ADRENERGIC RECEPTOR BLOCKADE FOR THE TREATMENT OF C. DIFFICILE COLITIS” (University of Virginia Patent Foundation, priority 2022, published 2025).
“And” between values parts separate entries of the source, which are not always exact repeats. Identical values can stand only once. “Also recorded” adds a separate entry of the source. Counter-ions that a name gives are not always drawn.

Columns and labels:
[1] = tested on: C. difficile infection (CDI); test: Mouse CDI model: survival, weight loss, clinical score; assay type: in vivo, mice; conditions: for clinical score versus ORA-PLUS vehicle: oral gavage days -1, 0, 1, scores at days 2-8
[2] = tested on: eosinophils, neutrophils, monocytes; test: Infiltrating colonic immune cells in CDI mice by flow cytometry; conditions: for monocyte levels / neutrophil levels: 6-OHDA vs PBS/saline, desipramine vs 6-OHDA alone
Method: To determine whether the sympathetic nervous system was necessary for a mounting of the inflammatory response, the infiltrating immune cell response in 6-OHDA-treated mice was measured by flow cytometry.

[3] = tested on: cytokines; test: Luminex 32-plex cytokine levels in cecal tissue of CDI mice; conditions: IL-2, IL-4, IL-10, IL-12 (p40, p70), IL-15, MIP-1a, MIP-1b, LIX, VEGF, IL-5, GM-CSF, M-CSF, G-CSF, Eotaxin, IL-1b, IL-6, LIF, IP-10, KC, MCP-1, MIP2, MIG, IFNγ, IL-1a, IL-9, TNFa
Method: The levels of numerous cytokines were tested in PBS-treated mice and mice administered 6-OHDA.

[4] = tested on: C. difficile; test: C. difficile colonization in cecal contents by GDH ELISA; assay type: in vivo; conditions: cecal contents 2 days post-infection
Method: CDI colonization levels were also determined in PBS-treated mice (negative control) and mice treated with RX 821002. Briefly, C. difficile colonization in cecal contents of mice sacrificed 2 days post-infection was determined by a GDH ELISA from […], Inc. (Blacksburg, Virginia, United States of America; Catalog No. TL5025). Prior to the ELISA, cecal contents were resuspended in PBS by mass. The GDH ELISA was performed according to the manufacturer's instructions.

[5] = tested on: toxin A/B; test: Toxin A/B ELISA of cecal contents; assay type: in vivo, C. difficile; conditions: cecal contents 2 days post-infection
Method: ADRA2A inhibition with RX 821002 was also tested for any affects on toxin A/B levels in mice. Briefly, […] in cecal contents of mice sacrificed 2 days post-infection was determined by a Toxin A/B ELISA from TECHLAB, Inc. (Catalog No. TL5025). Prior to the ELISA, cecal contents were resuspended in PBS by mass. The Toxin A/B ELISA was performed according to the manufacturer's instructions. Mice were treated with RX 821002 and toxin A/B levels in CDI cecal content were determined.

[6] = tested on: C. difficile; test: C. difficile counts (CFU) from cecal contents; assay type: in vivo; conditions: cecal contents at 18 hours post-infection
Method: C. difficile counts were quantified from cecal contents at 18 hours post-infection. Cecal contents were resuspended by mass in anaerobic PBS. […] Colony counts were made manually.

[7] = CDI mouse model, 6-OHDA 80 mg/kg i.p., propranolol, SR 59230A, RX 821002 10 mg/kg i.p., nepicastat oral gavage

NCCc1cc(O)c(O)cc1O [6-OHDA, 6-hydroxydopamine]
effect on survival / CDI-induced mortality versus negative control ([1]; mouse, in vivo): strikingly ameliorated the incidence of mortality; also recorded: complete protection from death | mice still alive through day 5 post-infection ([1]; mouse, in vivo): 100% | weight loss versus control ([1]; mouse, in vivo): significantly (p<0.001) reduced; also recorded: strikingly ameliorated | mice still alive at day 7 post-infection ([1]; mouse, in vivo, ip, 80 mg/kg): 90% and 80% | monocyte levels [2]: not significantly reduced | neutrophil levels [2]: significantly reduced; also recorded: less representative of the colonic immune cells | eosinophil levels ([2]; vs PBS/Saline): did not reach statistical significance | cytokine levels versus PBS-treated mice [3]: statistically significantly reduced; also recorded: lower amounts of cytokines | cytokine levels versus PBS-treated mice ([3]; listed as 6-hydroxydopamine): block in pro-inflammatory cytokine response

COC1(C2=NCCN2)COc2ccccc2O1 (centres unmarked) [RX 821002, 2-(3-methoxy-2H-1,4-benzodioxin-3-yl)-4,5-dihydro-1H-imidazole]
CDI colonization (GDH ELISA) versus PBS [4]: no effect | effect on survival / CDI-induced mortality versus negative control [1, 7]: statistically significant difference in percent survival; also recorded: drastically reduced; also recorded: ameliorated CDI induced mortality; also recorded: protection | toxin A/B levels in CDI cecal content [5]: reduced | C. difficile burden, colony-forming units (CFU)/mg/ml, versus PBS [6]: no difference

CCc1ccccc1OC[C@@H](O)CN[C@H]1CCCc2ccccc21 [SR 59230A, (2S)-1-(2-ethylphenoxy)-3-[[(1S)-1,2,3,4-tetrahydronaphthalen-1-yl]amino]propan-2-ol]
effect on survival / CDI-induced mortality versus negative control [1, 7]: increased the incidence of mortality; also recorded: exacerbated CDI disease progression | mice dead prior to day 3 post-infection ([1]; CDI mouse model, SR 59230A 10 mg/kg i.p.): 100%

CNCCCN1c2ccccc2CCc2ccccc21 [desipramine, 3-(10,11-dihydro-5H-dibenzo[b,f]azepin-5-yl)-N-methylpropan-1-amine]
effect on survival / CDI-induced mortality versus negative control ([1]; mouse, in vivo): prevented the protective effect of 6-OHDA on the incidence of mortality | monocyte levels [2]: statistically significant elevation | neutrophil levels [2]: negated this reduction

NCc1c[nH]c(=S)n1[C@H]1CCc2c(F)cc(F)cc2C1 [nepicastat hydrochloride, 5-(Aminomethyl)-1-[(2S)-5,7-difluoro-1,2,3,4-tetrahydro-2-naphthalenyl]-1,3-dihydro-2H-imidazole-2-thione]
effect on survival / CDI-induced mortality versus negative control [1, 7]: protected against CDI-induced mortality; also recorded: significantly improved survival | effect on survival / CDI-induced mortality versus negative control ([1]; CDI mouse model, 6-OHDA 80 mg/kg i.p., propranolol, SR 59230A, RX 821002 10 mg/kg i.p., nepicastat oral gavage, listed as nepicastat): greatly reduced the incidence of mortality | clinical score versus ORA-PLUS vehicle ([1]; CDI mouse model): statistically significantly lower | clinical score versus ORA-PLUS vehicle ([1]; CDI mouse model, listed as Nepicastat): significantly better clinical scores

COC(=O)[C@@H]1[C@H]2C[C@H]3c4[nH]c5ccccc5c4CCN3C[C@@H]2CC[C@@H]1O [yohimbine, methyl(1S,15R,18S,19R,20S)-18-hydroxy-1,3,11,12,14,15,16,17,18,19,20,21-dodecahydroyohimban-19-carboxylate]
effect on survival / CDI-induced mortality versus negative control [1, 7]: statistically significant amelioration of CDI induced mortality
